± gives the expanded uncertainty stated by the source.
Columns and labels:
[1] = xn = mol fraction of the nth substance listed; conditions: 298 K, 101 kPa, Liquid; for speed of sound: Anton Paar DSA 48; for mass density: Vibrating tube method
[2] = refractive index (Na D-line) (dimensionless); xn = mol fraction of the nth substance listed; conditions: 298 K, 101 kPa, Liquid, ATAGO RX-1000

CCCCOC(C)(C)C [butane, 1-(1,1-dimethylethoxy)-] + CCO
Conditions | mass density, [1] [kg/m3] | refractive index, [2] | speed of sound, [1] [m/s]
x1 = 0.0493 | 782.41 ± 0.22 | 1.36389 ± 0.0001 | 1141 ± 1
x1 = 0.0589 | 781.92 ± 0.22 | 1.36463 ± 0.0001 | 1139 ± 1
x1 = 0.0797 | 780.9 ± 0.22 | 1.36652 ± 0.0001 | 1139 ± 1
x1 = 0.1006 | 779.92 ± 0.22 | 1.36783 ± 0.0001 | 1136 ± 1
x1 = 0.1555 | 777.57 ± 0.21 | 1.37143 ± 0.0001 | 1133 ± 1
x1 = 0.1947 | 776.05 ± 0.21 | 1.37365 ± 9e-05 | 1132 ± 1
x1 = 0.1978 | 775.98 ± 0.21 | 1.37382 ± 9e-05 | 1132 ± 1
x1 = 0.2528 | 773.99 ± 0.2 | 1.3765 ± 9e-05 | 1129 ± 1
x1 = 0.2923 | 772.71 ± 0.2 | 1.37818 ± 9e-05 | 1127 ± 1
x1 = 0.2967 | 772.6 ± 0.2 | 1.37834 ± 9e-05 | 1128 ± 1
x1 = 0.3512 | 770.96 ± 0.19 | 1.38037 ± 8e-05 | 1125 ± 1
x1 = 0.3966 | 769.83 ± 0.19 | 1.38183 ± 8e-05 | 1124 ± 1
x1 = 0.397 | 769.71 ± 0.19 | 1.38186 ± 8e-05 | 1124 ± 1
x1 = 0.4313 | 768.83 ± 0.18 | 1.38287 ± 8e-05 | 1123 ± 1
x1 = 0.4999 | 767.3 ± 0.18 | 1.38462 ± 7e-05 | 1122 ± 1
x1 = 0.5118 | 766.95 ± 0.17 | 1.38494 ± 7e-05 | 1121 ± 1
x1 = 0.559 | 765.94 ± 0.17 | 1.38599 ± 7e-05 | 1120 ± 1
x1 = 0.5953 | 765.3 ± 0.18 | 1.38674 ± 7e-05 | 1119 ± 1
x1 = 0.5964 | 765.18 ± 0.17 | 1.38674 ± 7e-05 | 1119 ± 1
x1 = 0.6627 | 763.92 ± 0.16 | 1.38795 ± 6e-05 | 1118 ± 1
x1 = 0.6853 | 763.6 ± 0.15 | 1.38828 ± 6e-05 | 1120 ± 1
x1 = 0.7044 | 763.16 ± 0.15 | 1.38862 ± 6e-05 | 1118 ± 1
x1 = 0.7441 | 762.45 ± 0.15 | 1.3892 ± 6e-05 | 1117 ± 1
x1 = 0.7814 | 761.8 ± 0.15 | 1.3897 ± 6e-05 | 1117 ± 1
x1 = 0.7853 | 761.72 ± 0.15 | 1.38986 ± 6e-05 | 1118 ± 1
x1 = 0.8493 | 760.58 ± 0.14 | 1.3905 ± 5e-05 | 1116 ± 1
x1 = 0.9072 | 759.5 ± 0.14 | 1.39106 ± 5e-05 | 1115 ± 1
x1 = 0.9404 | 758.85 ± 0.14 | 1.39132 ± 5e-05 | 1115 ± 1

From the NIST ThermoML archive (doi:10.1016/j.tca.2005.04.030)
